Values joined by “and” are separate entries in the source; they are usually repeats but may differ in a detail not shown here. Equal values may be shown once.
Test system: G-401 tumor spheroids, viability % test/control
Experiment: Anticancer human tumor G-401 cell line growth inhibition;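 note: spheroids exposed to compound for 7 days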;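 for viability, T/C: 100% = DMSO vehicle-treated spheroids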
Conditions: spheroids with HUVEC and MSC; for viability, T/C: stronger effect = lower value; active = viability on the fitted dose curve at most 10% of control; inactive = the rest
Summary of the method: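 Complex spheroids of malignant cells with endothelial cells and mesenchymal stem cells; agents alone or combined, from near clinical Cmax (or 10 microM if unknown) down in half-log steps, 0.25% DMSO final.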

Cc1cc(C)c(CNC(=O)c2cc(-c3ccc(CN4CCOCC4)cc3)cc3c2cnn3C2CCCC2)c(=O)[nH]1 + CC[C@@]1(O)C(=O)OCc2c1cc1n(c2=O)Cc2cc3c(CN(C)C)c(O)ccc3nc2-1
< 31.6 nM: IC50 (curve of first compound, second compound 0.00949 µM) | IC50 (curve of first compound, second compound 0.03 µM) | IC50 (curve of first compound, second compound 0.0949 µM) | IC50 (curve of first compound, second compound 0.3 µM)
4210 nM: IC50 (curve of first compound, second compound 0.003 µM)
inactive: viability, T/C (second compound 0.003 µM, first compound 0.0316 µM) 79.7% | viability, T/C (second compound 0.003 µM, first compound 0.1 µM) 81.4% | viability, T/C (second compound 0.003 µM, first compound 0.316 µM) 75.1% | viability, T/C (second compound 0.003 µM, first compound 1 µM) 75.1% | viability, T/C (second compound 0.003 µM, first compound 3.16 µM) 58.2% | viability, T/C (second compound 0.003 µM, first compound 10 µM) 24.3% | viability, T/C (second compound 0.00949 µM, first compound 0.0316 µM) 47.1% | viability, T/C (second compound 0.00949 µM, first compound 0.1 µM) 39.4% | viability, T/C (second compound 0.00949 µM, first compound 0.316 µM) 32.9% | viability, T/C (second compound 0.00949 µM, first compound 1 µM) 33.2% | viability, T/C (second compound 0.00949 µM, first compound 3.16 µM) 22.1% | viability, T/C (second compound 0.00949 µM, first compound 10 µM) 14.2% | viability, T/C (second compound 0.03 µM, first compound 0.0316 µM) 13.4% | viability, T/C (second compound 0.03 µM, first compound 0.1 µM) 12.7% | viability, T/C (second compound 0.03 µM, first compound 0.316 µM) 11%
active: viability, T/C (second compound 0.03 µM, first compound 1 µM) 9.58% | viability, T/C (second compound 0.03 µM, first compound 3.16 µM) 7.81% | viability, T/C (second compound 0.03 µM, first compound 10 µM) 7.38% | viability, T/C (second compound 0.0949 µM, first compound 0.0316 µM) 7.91% | viability, T/C (second compound 0.0949 µM, first compound 0.1 µM) 8.43% | viability, T/C (second compound 0.0949 µM, first compound 0.316 µM) 7.6% | viability, T/C (second compound 0.0949 µM, first compound 1 µM) 6.51% | viability, T/C (second compound 0.0949 µM, first compound 3.16 µM) 5.89% | viability, T/C (second compound 0.0949 µM, first compound 10 µM) 5.15% | viability, T/C (second compound 0.3 µM, first compound 0.0316 µM) 5.19% | viability, T/C (second compound 0.3 µM, first compound 0.1 µM) 5.25% | viability, T/C (second compound 0.3 µM, first compound 0.316 µM) 4.23% | viability, T/C (second compound 0.3 µM, first compound 1 µM) 4.83% | viability, T/C (second compound 0.3 µM, first compound 3.16 µM) 4.3% | viability, T/C (second compound 0.3 µM, first compound 10 µM) 4.73%

COc1cc(C)[nH]c(=O)c1CN1CCc2c(Cl)cc(C(OC)C3COC3)c(Cl)c2C1=O (configuration not stated) + Cn1nnc2c(C(N)=O)ncn2c1=O
203 nM: IC50 (curve of first compound, second compound 100 µM)
inactive: viability, T/C (second compound 1 µM, first compound 0.0316 µM) 88.4% | viability, T/C (second compound 1 µM, first compound 0.1 µM) 57.9% | viability, T/C (second compound 1 µM, first compound 0.316 µM) 38.3% | viability, T/C (second compound 1 µM, first compound 1 µM) 31.7% | viability, T/C (second compound 1 µM, first compound 3.16 µM) 21.3% | viability, T/C (second compound 1 µM, first compound 10 µM) 27.6% | viability, T/C (second compound 3.16 µM, first compound 0.0316 µM) 86.3% | viability, T/C (second compound 3.16 µM, first compound 0.1 µM) 63% | viability, T/C (second compound 3.16 µM, first compound 0.316 µM) 41.2% | viability, T/C (second compound 3.16 µM, first compound 1 µM) 30.4% | viability, T/C (second compound 3.16 µM, first compound 3.16 µM) 24.3% | viability, T/C (second compound 3.16 µM, first compound 10 µM) 23.5% | viability, T/C (second compound 10 µM, first compound 0.0316 µM) 81% | viability, T/C (second compound 10 µM, first compound 0.1 µM) 59.9% | viability, T/C (second compound 10 µM, first compound 0.316 µM) 25.5% | viability, T/C (second compound 10 µM, first compound 1 µM) 33.8% | viability, T/C (second compound 10 µM, first compound 3.16 µM) 30.4% | viability, T/C (second compound 10 µM, first compound 10 µM) 27.2% | viability, T/C (second compound 31.6 µM, first compound 0.0316 µM) 81.8% | viability, T/C (second compound 31.6 µM, first compound 0.1 µM) 60.8% | viability, T/C (second compound 31.6 µM, first compound 0.316 µM) 43.9% | viability, T/C (second compound 31.6 µM, first compound 1 µM) 32.2% | viability, T/C (second compound 31.6 µM, first compound 3.16 µM) 27.9% | viability, T/C (second compound 31.6 µM, first compound 10 µM) 23.4% | viability, T/C (second compound 100 µM, first compound 0.0316 µM) 88.3% | viability, T/C (second compound 100 µM, first compound 0.1 µM) 62% | viability, T/C (second compound 100 µM, first compound 0.316 µM) 43.3% | viability, T/C (second compound 100 µM, first compound 1 µM) 29.6% | viability, T/C (second compound 100 µM, first compound 3.16 µM) 30.8% | viability, T/C (second compound 100 µM, first compound 10 µM) 24.7%
145 nM: IC50 (curve of first compound, second compound 10 µM)
160 nM: IC50 (curve of first compound, second compound 1 µM)
201 nM: IC50 (curve of first compound, second compound 3.16 µM)
208 nM: IC50 (curve of first compound, second compound 31.6 µM)

Cc1cc(C)c(CNC(=O)c2cc(-c3ccc(CN4CCOCC4)cc3)cc3c2cnn3C2CCCC2)c(=O)[nH]1
inactive: viability, T/C (compound 0.0316 µM) 106% and 105% and 95.6% | viability, T/C (compound 0.1 µM) 111% and 102% and 98.5% | viability, T/C (compound 0.316 µM) 108% and 107% and 106% | viability, T/C (compound 1 µM) 113% and 97.5% and 91.4% | viability, T/C (compound 3.16 µM) 98.1% and 91.5% and 77.8% | viability, T/C (compound 10 µM) 44.2% and 44.8% and 57.8%
8840 nM and 8810 nM and > 10000 nM: IC50 (curve of compound)
